In patent US10022382B2, “RNA polymerase I inhibitors and uses thereof” (Tel HaShomer Medical Research Infrastructure and Services …, priority 2013, dated 2018):

What was measured:
[1] = test system: Mouse splenocytes; assay: XTT cell viability assay, PHA-stimulated splenocytes; assay type: cell-based; conditions: 72 hours; for XTT IC50 / IC50: mouse splenocytes, 25-400 nM; for IC50: Splenocyte
Protocol: Cell viability was assessed by the 2,3 bis [2-Methoxy-4-nitro-5-sulfophenyl]-2H-tetrazolium-5-carboxanilide (XTT) assay (Biological Industries, Kibbutz Beit Hemeek, Israel), which measures the reduction of a tetrazolium component (XTT) into soluble formazan product by the mitochondria of viable cells. The intensity of the dye obtained is proportional to the number of metabolic active cells. On the day of measurement, cells were washed and XTT was added according to the manufacturer's instructions. Plates were incubated at 37° C. for 2-5 hours. The absorbance was read at 450 nm.
Mouse splenocytes were removed and spleenocytes were plated (250,000 cell/well) in DMEM+10% FCS+P/S+Q and […] Phytohaemaglutinin (PHA), in the presence of elevated concentrations (25-400 nM) of RAM-0 (Compound 1), RAM-1 (Compound 4), RAM-2 (Compound 2) or RAM-3 (Compound 3) for 72 hours. Cells cultured without PHA served as control. Control mice at zero are mice splenocytes with PHA stimulation.
Following incubation, cell viability was determined by XTT assay, as described above.

[2] = Toxicity (LD50, survival) in the EAE model, continuous administration; assay type: in vivo; conditions: C57BL/6J, mouse, in vivo, oral; EAE prevention model, continuous administration
Protocol: (§1) The animals were evaluated for signs of acute toxicity and survival during the entire administration period in the EAE model.
(§2) The therapeutic index (LD50/ED50), which is also referred to herein as Safety Margin (SM), was then determined based on the EAE model.

[3] = test system: C57BL/6J mice; assay: as above; assay type: in vivo; conditions: EAE prevention model
Protocol: as §1, §2

[4] = test system: Experimental Autoimmune Encephalomyelitis (EAE); conditions: cited from earlier work
[5] = test system: POL-I; conditions: human cancer cell lines; cited from earlier work
[6] = Solubility in mQ water; assay type: physicochemical; conditions: 50 mg in 0.5 mL mQ water, room temperature
Protocol: The solubility of Compounds 1 and 10 was determined by dissolving 50 mg of the tested compound in 0.5 mL of mQ water, at room temperature.

[7] = test system: MOG35-55 EAE in C57BL/6J mice; assay: MOG35-55 EAE prevention (immunization) model; assay type: in vivo; conditions: Mus musculus
Protocol: Mice: Eight-weeks-old female C57BL/6J mice (15-20 g, Harlan laboratories, Rehovot, Israel) were used in all experiments. Animal maintenance and experimental protocols were performed in accordance with the Israeli Council for Animal Care guidelines and approved by Sheba IRB Animal Care Committee. Mice were kept in an SPF environment, maintained on a 12-h light/dark cycle at a constant environmental temperature with free access to food and water in their home cages.
Induction of MOG35-55 EAE (Prevention Model): EAE (Experimental Autoimmune Encephalomyelitis) was induced in 8 week old female C57BL/6J mice (15-20 g, Harlan laboratories, Rehovot, Israel) by immunization with an emulsion containing 300 μg of purified myelin oligodendrocyte glycoprotein (MOG) peptide ([…], corresponding to residues 35-55; obtained from (Difco, Detroit, Mich.) in saline and an equal volume of complete Freund's adjuvant containing 5 mg H37RA (Difco, Detroit, Mich.). 0.2 ml of the inoculum was injected subcutaneously. In addition, 300 ng of Bordetella pertusis toxin (Sigma) in 0.2 ml saline was injected intraperitoneally at the day of induction and two days later.
Oral gavages with the tested compound, at various concentrations ranging from 3 mg/kg-30 mg/kg in PBS or 50 mM NaH2PO4 (PH 4.5), or with vehicle only, were initiated at day of immunization. Mice were monitored daily for clinical signs of EAE, scored as: 1, flaccid tail; 2, forelimb weakness and poor righting ability; 3, hind limb paralysis; 4, quadriplegia; 5, moribund. Animal reaching a score of 4 were scarified using CO2.
Treatment was stopped once 30% of the vehicle-treated animals scored 1 on the EAE score. […]
The therapeutic index (LD50/ED50), which is also referred to herein as Safety Margin (SM), was then determined based on the EAE model. ED50 is the minimum effective dose observed for 50% of the tested animals.

Cc1cnc(CNC(=O)c2c(Cl)c3ccc(N4CCCN(C)CC4)nc3[n+]3c2sc2ccccc23)cn1 [Compound 2, 5-chloro-2-(4-methyl-1,4-diazepan-1-yl)-6-(((5-methylpyrazin-2-yl)methyl)carbamoyl)benzo[4,5]thiazolo[3,2-a][1,8]naphthyridin-12-ium]
suppression of splenocyte proliferation compared to Compound 1 (XTT) [1]: no substantial effect | XTT IC50 [1]: No Effect

Cc1cnc(CNc2nc(=O)nc3c4ccc(N5CCCN(C)CC5)nc4n4c(sc5ccccc54)c2-3)cn1 [Compound 9]
XTT IC50 [1]: No Effect

Cc1cnc(CNC(=O)c2c(=N)c3ccc(N4CCCN(C)CC4)nc3n3c2sc2ccccc23)cn1 [Compound 4, 5-imino-2-(4-methyl-1,4-diazepan-1-yl)-N-((5-methylpyrazin-2-yl)methyl)-5H-benzo[4,5]thiazolo[3,2-a][1,8]naphthyridine-6-carboxamide]
suppression of splenocyte proliferation compared to Compound 1 (XTT) [1]: dose response curve similar to RAM-0 (Compound 1) | IC50 [1]: 50 nM

Cc1cnc(CNC(=O)c2c(=S)c3ccc(N4CCCN(C)CC4)nc3n3c2sc2ccccc23)cn1 [Compound 3, 2-(4-methyl-1,4-diazepan-1-yl)-N-((5-methylpyrazin-2-yl)methyl)-5-thioxo-5H-benzo[4,5]thiazolo[3,2-a][1,8]naphthyridine-6-carboxamide]
effectiveness in suppressing proliferation compared to Compound 1 [1]: 6 folds | IC50 [1]: 20 nM

C/N=c1/c(C(=O)NCc2cnc(C)cn2)c2sc3ccccc3n2c2nc(N3CCCN(C)CC3)ccc12 [Compound 5, (E/Z)-2-(4-methyl-1,4-diazepan-1-yl)-5-(methylimino)-N-((5-methylpyrazin-2-yl)methyl)-5H-benzo[4,5]thiazolo[3,2-a][1,8]naphthyridine-6-carboxamide]
IC50 [1]: 50 nM

CO/N=c1/c(C(=O)NCc2cnc(C)cn2)c2sc3ccccc3n2c2nc(N3CCCN(C)CC3)ccc12 [Compound 8]
IC50 [1]: 50 nM

Cc1cnc(CNC(=O)c2c(=O)c3ccc(N4CCCN(C)CC4)nc3n3c2sc2ccccc23)cn1 [Compound 1, 2-(4-methyl-1,4-diazepan-1-yl)-N-((5-methylpyrazin-2-yl)methyl)-5-oxo-5H-benzo[4,5]thiazolo[3,2-a][1,8]naphthyridine-6-carboxamide, reference compound]
LD50 [2]: 25 mg/kg | SM (therapeutic index LD50/ED50) [3]: 2 | IC50 [1]: 50 nM | EAE disease severity ([4]; administered at clinical disease onset): reduce the disease severity | EAE prevention ([4]; administered at disease induction): prevent animal Experimental Autoimmune Encephalomyelitis (EAE) | POL-I activity [5]: inhibited POL-I activity | solubility [6]: dissolved only in a pH 4.5 buffered solution after vigorous stirring for 30 minutes | ED50 [7]: 12.5 mg/kg

Cc1cnc(CNC(=O)c2/c(=N/C(C)C)c3ccc(N4CCCN(C)CC4)nc3n3c2sc2ccccc23)cn1 [Compound 7]
IC50 [1]: 50 nM

CCC/N=c1/c(C(=O)NCc2cnc(C)cn2)c2sc3ccccc3n2c2nc(N3CCCN(C)CC3)ccc12 [Compound 6]
IC50 [1]: 50 nM
